Source: ChEMBL document CHEMBL5608141, “Identification of compartment-specific drug sensitivities in CRC organoid-stroma co-cultures” (2024)
Non-standard residues stand in square brackets, D forms with d. Residues, ends and D or L forms follow the SMILES beside them. Arg(Me) = CNC(=N)NCCC[C@H](N)C(=O)O; d3Pal = N[C@H](Cc1cccnc1)C(=O)O; d4Pal = N[C@H](Cc1ccncc1)C(=O)O; azaGly = NNC(=O)O

What was measured:
Assay type in all cases: functional, Homo sapiens
Parameters in all cases: dose or concentration left out as unconfirmed
Colon cancer organoid [1] = experiment: Identification of compartment-specific drug sensitivities in O14 CRC organoid-stroma F14 CAF co-cultures. Organoid is transduced with Lucferase2-P2A-EGFP lentivirus, fibroblast with Renilla-dsRed lentivirus. Dual-Glo Luciferase assay is used to report viability data.
Colon cancer organoid [2] = experiment: Identification of compartment-specific drug sensitivities in O20 CRC organoid-stroma F20 CAF co-cultures. Organoid is transduced with Lucferase2-P2A-EGFP lentivirus, fibroblast with Renilla-dsRed lentivirus. Dual-Glo Luciferase assay is used to report viability data.
Colon cancer organoid [3] = experiment: Identification of compartment-specific drug sensitivities in O06 CRC organoid-stroma F06 CAF co-cultures. Organoid is transduced with Lucferase2-P2A-EGFP lentivirus, fibroblast with Renilla-dsRed lentivirus. Dual-Glo Luciferase assay is used to report viability data.
[4] = Transduced with Lucferase2-P2A-EGFP lentivirus
[5] = Transduced with Renilla-dsRed lentivirus

SMILES | Cell Viability (Colon cancer organoid [1]; [4]) | Cell Viability (Colon cancer organoid [1]; [5]) | Cell Viability (Colon cancer organoid [2]; [4]) | Cell Viability (Colon cancer organoid [2]; [5]) | Cell Viability (Colon cancer organoid [3]; [4]) | Cell Viability (Colon cancer organoid [3]; [5])
CNC(=O)c1cc(C(=O)NC2CC2)cn(Cc2ccccc2)c1=O [GSK620] | 84.0371% | 91.229% | 93.0444% | 100.747% | 111.223% | 132.009%
COCc1nc2cnc3cc(-c4c(C)noc4C)c(OC[C@H]4CCNC4)cc3c2n1[C@H](C)c1ccccc1 [GSK778] | 41.3417% | 133.991% | 27.6505% | 143.906% | 81.063% | 183.714%
Cc1cc2c(-c3ccco3)cnc(N[C@@H]3CCN(C)C[C@H]3C(=O)NC3CCCCC3)c2[nH]c1=O [GSK789] | 52.4382% | 127.289% | 34.1492% | 125.83% | 76.5976% | 134.369%
Cc1cc2c(-c3ccco3)cnc(N[C@H]3CCN(C)C[C@@H]3C(=O)NC3CCCCC3)c2[nH]c1=O [GSK791] | 100.549% | 110.493% | 101.663% | 116.18% | 113.813% | 153.556%
CNC(=O)c1cc(C(=O)N[C@H]2[C@@H]3COC[C@@H]32)cc2c1O[C@@H](CF)[C@@H]2c1ccccc1 [GSK943] | 96.5907% | 102.587% | 107.286% | 108.354% | 83.6271% | 130.888%
CNC(=O)c1cc(C(=O)N[C@H]2[C@@H]3COC[C@@H]32)cc2c1O[C@H](CF)[C@H]2c1ccccc1 [GSK973] | 99.5313% | 122.198% | 97.9061% | 135.509% | 110.942% | 170.924%
C[C@@H](Oc1cc(-n2cnc3ccc(CN4CCN(C)CC4)cc32)sc1C(N)=O)c1ccccc1C(F)(F)F [GSK-461364] | 14.2355% | 96.4779% | 35.9092% | 141.481% | 8.2073% | 127.3%
O=C(O)c1ccc(-c2c[nH]c3ncc(-c4ccccc4)cc23)cc1C1CCCC1 [GSK-650394] | 112.026% | 70.7781% | 93.9419% | 129.576% | 92.5027% | 110.19%
CCn1cc(-c2ccnc3[nH]c(-c4cccc(CN(C)C)c4)cc23)c(-c2ccc(NC(=O)N(C)C)cc2)n1 [GSK-1070916] | 13.7383% | 103.854% | 9.494% | 207.056% | 8.589% | 116.692%
COc1ccc(COc2ccc(Cc3cnc(N)nc3N)cc2OC)cc1 [GW632580X] | 144.194% | 102.086% | 200.298% | 84.9331% | 84.8428% | 83.7807%
COc1cc2ncn(-c3cc(OCc4ccccc4C(F)(F)F)c(C(N)=O)s3)c2cc1OC [GW843682X] | 3.29% | 110.017% | 89.1479% | 152.214% | 4.781% | 182.458%
CCOc1cc2ncc(C#N)c(Nc3ccc(OCc4cccc(F)c4)c(Cl)c3)c2cc1NC(=O)/C=C/CN(C)C [HKI-357] | 38.7389% | 28.7857% | 50.6947% | 47.1207% | 16.8896% | 39.6819%
CCN1CCN(c2ccc(Nc3cc(N(C)C(=O)Nc4c(Cl)c(OC)cc(OC)c4Cl)ncn3)cc2)CC1 [INFIGRATINIB] | 55.6946% | 110.833% | 101.232% | 52.242% | 0.6967% | 125.024%
Cc1c(Oc2ccc(F)cc2)c(OC(C)C)nn1-c1ccc(C2CC2)cn1 [IPP/CNRS-A019] | 67.4569% | 79.6967% | 91.0165% | 118.396% | 92.46% | 90.9232%
COCCc1ccc(-c2c(C)nc3c(N4CCOCC4)ccnn23)cn1 [JNJ-42396302] | 94.533% | 84.3411% | 126.017% | 102.271% | 121.378% | 128.188%
COc1nc2ccc([C@@](O)(c3ccccc3)C3CCN(C(C)=O)CC3)cc2c(Cl)c1Cc1ccc(-n2cccn2)cc1 [JNJ-54119936] | 99.4009% | 84.202% | 65.101% | 118.395% | 97.0001% | 121.742%
CC(=O)Nc1ncc(CN2CCC[C@H](Cc3cc(C)nc(C)c3)C2)s1 [JNJ-65355394] | 108.182% | 61.6526% | 88.5022% | 103.797% | 116.935% | 172.928%
CC(=O)Nc1nc(CN2CCC[C@H](Cc3cc(C)nc(C)c3)C2)cs1 [JNJ-73924149] | 104.416% | 83.6177% | 90.3874% | 105.251% | 82.0789% | 131.954%
N#CN1CC[C@@H](C(=O)Nc2nc3c(s2)CN(C(=O)CN=[N+]=[N-])CC3)C1 [JYQ88] | 68.7487% | 88.1605% | 64.1943% | 84.2967% | 72.1963% | 58.5555%
CNC(=N)NCCC[C@H](NC(=O)[C@H](CC(C)C)NC(=O)NNC(=O)[C@H](Cc1ccccc1)NC(=O)[C@H](CO)NC(=O)[C@H](CC(N)=O)NC(=O)[C@@H](Cc1ccncc1)NC(=O)[C@H](N)Cc1ccc(O)cc1)C(=O)N[C@@H](Cc1ccccc1)C(N)=O [KISS1-305] (H-[dY][d4Pal]NSF[azaGly]L[Arg(Me)]F-NH2) | 102.723% | 96.9932% | 118.72% | 125.679% | 113.14% | 104.585%
CNC(=N)NCCC[C@H](NC(=O)[C@H](CC(C)C)NC(=O)NNC(=O)[C@H](Cc1ccccc1)NC(=O)[C@H](CO)NC(=O)[C@H](CC(N)=O)NC(=O)[C@@H](Cc1cccnc1)NC(=O)[C@H](N)Cc1ccc(O)cc1)C(=O)NCC(N)=O [KISS1-543] (H-[dY][d3Pal]NSF[azaGly]L[Arg(Me)]G-NH2) | 105.115% | 104.622% | 101.104% | 120.489% | 93.1752% | 90.9674%
